In patent publication US8741897B2, “Glucocorticoid mimetics, methods of making them, pharmaceutical compositions and uses thereof” (Boehringer Ingelheim Pharmaceuticals Inc., priority 2003, dated 2014):

Tested on: glucocorticoid receptor function
Assay: one or more of the above assays (GR binding and glucocorticoid receptor cell assays: aromatase, IL-6, TAT, MMTV-Luc, IL-8, ICAM-Luc)
Assay type: cell-based
Conditions: assay not specified per compound
Procedure: B. Glucocorticoid Receptor Cell Assays
1. Induction of Aromatase in Fibroblasts (Cell Assay for Transactivation)
Dexamethasone, a synthetic ligand to the glucocorticoid receptor (GR), induces expression of aromatase in human foreskin fibroblast cells. The activity of aromatase is measured by the conversion of testosterone to estradiol in culture media.
On the day of the experiment, the media in the wells is replaced with fresh media. Cells are treated with test compounds to final concentrations of 10^−5 M to 10^−8 M, and testosterone to a final concentration of 300 ng/mL. Each well has a total volume of 100 μL. Samples are made in duplicates. Control wells include: (a) wells that receive testosterone only, and (b) wells that receive testosterone plus 2 μM of dexamethasone to provide maximum induction of aromatase. Plates are incubated at 37° C. overnight (15 to 18 hours), and supernatants are harvested at the end of incubation. […] The amount of estradiol is inversely proportional to the ELISA signals in each well. The extent of aromatase induction by test compounds is expressed as a relative percentage to dexamethasone. EC50 values of test compounds are derived by non-linear curve fitting.
2. Inhibition of IL-6 Production in Fibroblasts (Cell Assay for Transrepression)
Human foreskin fibroblast cells produce IL-6 in response to stimulation by proinflammatory cytokine IL-1.
On the next day, media in the wells is replaced with fresh media. Cells are treated with IL-1 (rhIL-1α, R&D Systems Cat. No. 200-LA) to a final concentration of 1 ng/mL, and with test compounds to final concentrations of 10^−5 M to 10^−8 M, in a total volume of 200 μL per well. Samples are done in duplicates. […] Positive control wells receive IL-1 only and represent maximum (or 100%) amount of IL-6 production. Plates are incubated at 37° C. overnight (15 to 18 hours), and supernatants are harvested at the end of incubation. IL-6 levels in the supernatants are determined by the ELISA kits for IL-6 (MedSystems Diagnostics GmbH, Vienna, Austria, Cat. No. BMS213TEN) according to manufacture's instructions. The extent of inhibition of IL-6 by test compounds is expressed in percentage relative to positive controls. IC50 values of test compounds are derived by non-linear curve fitting.
Evaluation of agonist or antagonist activity of compounds binding to the glucocorticoid receptor may be determined by any of the assays.
3. Modulation of Tyrosine Aminotransferase (TAT) Induction in Rat Hepatoma Cells
Testing of compounds for agonist or antagonist activity in induction of tyrosine aminotransferase (TAT) in rat hepatoma cells.
H4-II-E-C3 cells were incubated overnight in 96 well plates (20,000 cells/100 μL/well) in MEM medium containing 10% heat inactivated FBS and 1% nonessential amino acids. On the next day, cells were stimulated with the indicated concentrations of dexamethasone or test compound (dissolved in DMSO, final DMSO concentration 0.2%) for 18 hours. Control cells were treated with 0.2% DMSO. After 18 hours, the cells were lysed in a buffer containing 0.1% Triton X-100 and the TAT activity was measured in a photometric assay using tyrosine and alpha-ketoglutarate as substrates.
For measuring antagonist activity, the hepatoma cells were pre-stimulated by addition of dexamethasone (concentration ranges from 3×10^−9 M to 3×10^−8 M) shortly before the test compound was applied to the cells.
4. Modulation of MMTV-Luc Induction in HeLa Cells
Testing of compounds for agonist or antagonist activity in stimulation of MMTV-(mouse mammary tumor virus) promoter in HeLa cells.
Cells were cultured overnight in DMEM medium without phenol red, supplemented with 3% CCS (charcoal treated calf serum) and then transferred to 96 well plates (15,000 cells/100 μL/well).

Molecule: CC(C)(CC(O)(Cn1ccc2c1CCCC2=O)C(F)(F)F)c1cc(F)ccc1O (stereo not shown)
- activity as agonists of the glucocorticoid receptor function in one or more of the above assays: agonists

Molecule: COc1ccc(C)cc1C(C)(C)CC(O)(Cc1cc2nc(N3CCCC3)ncc2[nH]1)C(F)(F)F (stereo not shown)
- activity as agonists of the glucocorticoid receptor function in one or more of the above assays: potent agonists

Molecule: Cc1ccc(F)cc1C(C)(C)CC(O)(Cc1cc2cc(-c3ccccc3)nnc2[nH]1)C(F)(F)F (stereo not shown)
- activity as agonists of the glucocorticoid receptor function in one or more of the above assays: potent agonists

Molecule: CN(C)Cc1c(CC(O)(CC(C)(C)c2cc(F)ccc2O)C(F)(F)F)[nH]c2ccncc12 (stereo not shown)
- activity as agonists of the glucocorticoid receptor function in one or more of the above assays: potent agonists

Molecule: 4-Pyrimidin-5-yl-2-[4,4,4-trifluoro-3-hydroxy-1,1-dimethyl-3-(1H-pyrrolo[2,3-c]pyridin-ylmethyl)butyl]phenol
- activity as agonists of the glucocorticoid receptor function in one or more of the above assays: potent agonists

Molecule: CC(C)(CC(O)(Cc1cc2cc(-c3cncnc3)ccc2[nH]1)C(F)(F)F)c1cc(F)cc2c1OCC2 (stereo not shown) [1,1,1-Trifluoro4-(5-fluoro-2,3-dihydrobenzofuran-7-yl)-4-methyl-2-(5-pyrimidin-5-yl-1H-indol-2-ylmethyl)pentan-2-ol]
- activity as agonists of the glucocorticoid receptor function in one or more of the above assays: potent agonists

Molecule: CC(C)(CC(O)(Cc1cc2cnccc2[nH]1)C(F)(F)F)c1cc(S(C)(=O)=O)cc2c1OCC2 (stereo not shown) [1,1,1-Trifluoro4-(5-methanesulfonyl-2,3-dihydrobenzofuran-7-yl)-4-methyl-2-(1H-pyrrolo[3,2-c]pyridin-2-ylmethyl)pentan-2-ol]
- activity as agonists of the glucocorticoid receptor function in one or more of the above assays: potent agonists

Molecule: COc1ccc(-c2cncnc2)cc1C(C)(C)CC(O)(Cc1cc2cc(OC(C)C)ncc2[nH]1)C(F)(F)F (stereo not shown) [1,1,1-Trifluoro-2-(5-isopropoxy-1H-pyrrolo[2,3-c]pyridin-2-ylmethyl)-4-(2-methoxy-5-pyrimidin-5-ylphenyl)-4-methylpentan-2-ol]
- activity as agonists of the glucocorticoid receptor function in one or more of the above assays: potent agonists

Molecule: COc1ccc(-c2ccsc2)cc1C(C)(C)CC(O)(Cc1cc2cc(OC(C)C)ncc2[nH]1)C(F)(F)F (stereo not shown) [1,1,1-Trifluoro-2-(5-isopropoxy-1H-pyrrolo[2,3-c]pyridin-2-ylmethyl)-4-(2-methoxy-5-thiophen-3-ylphenyl)-4-methylpentan-2-ol]
- activity as agonists of the glucocorticoid receptor function in one or more of the above assays: potent agonists

Molecule: COc1ccc(-c2ccccc2)cc1C(C)(C)CC(O)(Cc1cc2cc(OC(C)C)ncc2[nH]1)C(F)(F)F (stereo not shown) [1,1,1-Trifluoro-2-(5-isopropoxy-1H-pyrrolo[2,3-c]pyridin-2-ylmethyl)-4-(4-methoxybiphenyl-3-yl)-4-methylpentan-2-ol]
- activity as agonists of the glucocorticoid receptor function in one or more of the above assays: potent agonists

Molecule: CC(C)Oc1cc2cc(CC(O)(CC(C)(C)c3cc(-c4ccccc4)cc4c3OCC4)C(F)(F)F)[nH]c2cn1 (stereo not shown) [1,1,1-Trifluoro-2-(5-isopropoxy-1H-pyrrolo[2,3-c]pyridin-2-ylmethyl)-4-methyl-4-(5-phenyl-2,3-dihydrobenzofuran-7-yl)pentan-2-ol]
- activity as agonists of the glucocorticoid receptor function in one or more of the above assays: potent agonists

Molecule: CC(C)Oc1cc2cc(CC(O)(CC(C)(C)c3ccccc3)C(F)(F)F)[nH]c2cn1 (stereo not shown) [1,1,1-Trifluoro-2-(5-isopropoxy-1H-pyrrolo[2,3-c]pyridin-2-ylmethyl)-4-methyl-4-phenylpentan-2-ol]
- activity as agonists of the glucocorticoid receptor function in one or more of the above assays: potent agonists

Molecule: Cc1ccc(F)c2[nH]c(CC(O)(CC(C)(C)c3cc(S(C)(=O)=O)cc4c3OCC4)C(F)(F)F)cc12 (stereo not shown) [1,1,1-Trifluoro-2-(7-fluoro-4-methyl-1H-indol-2-ylmethyl)-4-(5-methanesulfonyl-2,3-dihydrobenzofuran-7-yl)-4-methylpentan-2-ol]
- activity as agonists of the glucocorticoid receptor function in one or more of the above assays: potent agonists
